From article PMC8474119, “Discovery and SAR Evolution of Pyrazole Azabicyclo[3.2.1]octane Sulfonamides as a Novel Class of Non-Covalent N-Acylethanolamine-Hydrolyzing Acid Amidase (NAAA) Inhibitors for Oral Administration” (Journal of Medicinal Chemistry, 2021) come the findings set out here.

What all share (format): in vitro ADME
Data set [1] is described as follows: Plasma stability assay, mouse plasma. Particulars: for % compound remaining at last time-point, plasma: 2.0 μM, 120 min; for half-life at 2 μM: n ≥ 3, read-out: plasma t1/2. On the procedure:
(§1) 10 mM DMSO stock solution of test compound (39 or 50) was diluted 50-fold with DMSO/H2O (1:1) and incubated at 37 °C for 2 h with mouse or rat plasma added with 5% DMSO (preheated at 37 °C for 10 min). The final compound’s concentration was 2.0 μM. At each time point (0, 5, 15, 30, 60, and 120 min), 50 μL of incubation mixture was diluted with 150 μL cold CH3CN spiked with 200 nM of warfarin, as the internal standard, followed by centrifugation at 3.270g for 20 min. The supernatant was further diluted with H2O (1:1) and analyzed by LC–MS/MS on a Waters ACQUITY UPLC-MS TQD system consisting of a triple quadrupole detector (TQD) mass spectrometer equipped with an electrospray ionization interface and a photodiode array eλ detector (PDA) from Waters Inc. (Milford, MA, USA). Electrospray ionization was applied in positive mode. Compound-dependent parameters as MRM transitions and collision energy were developed for each compound. The analyses were run on an ACQUITY UPLC BEH C18 (50 × 2.1 mm ID, particle size 1.7 μm) with a VanGuard BEH C18 precolumn (5 × 2.1 mm ID, particle size 1.7 μm) at 40 °C, using H2O + 0.1% HCOOH (A) and CH3CN + 0.1% HCOOH (B) as the mobile phase. The percentage of the test compound remaining at each time point relative to t = 0 was calculated by the response factor on the basis of the internal standard peak area. The percentage of test compound versus time was plotted and fitted by GraphPad Prism (GraphPad Software, Version 5 for Windows, CA, USA, www.graphpad.com) to estimate the compound’s half-life (t1/2), which was reported as mean value along with the standard deviation (n = 3).

Data set [2] in a line: Liver microsomal stability assay (NADPH), human. The settings on record: for % compound remaining at last time-point, LM_NADPH: human liver microsomes, 4.6 μM, 60 min; for half-life at 4.6 μM: male, pH 7.5, human liver microsomes, read-out: LM_NADPH t1/2. The protocol: (§2) Pooled CD1 mouse (M1000, male), IGS Sprague-Dawley rat (R1000, male), and human (H1000, male) liver microsomes were purchased from SEKISUI XenoTech. 10 mM DMSO stock solution of the test compound (39 or 50) was preincubated at 37 °C for 15 min with mouse, rat, or human liver microsomes in 0.1 M Tris-HCl buffer (pH 7.5) with 10% DMSO. The final concentration was 4.6 μM. After preincubation, the cofactor (NADPH) was added to the incubation mixture, and the incubation was continued at 37 °C for 1 h. At each time point (0, 5, 15, 30, and 60 min), 30 μL of incubation mixture was diluted with 200 μL cold CH3CN spiked with 200 nM of an appropriate internal standard, followed by centrifugation at 3.270g for 15 min. The supernatant was further diluted with H2O (1:1) for analysis. A reference incubation mixture of each specie (microsomes without cofactors) was prepared for each test compound and analyzed at t = 0 and 60 min in order to verify the compound stability in the matrix. The two time points were diluted as for the time points of the incubation mixture above. The supernatants were analyzed by LC–MS/MS on a Waters ACQUITY UPLC-MS TQD system consisting of a triple quadrupole detector (TQD) mass spectrometer equipped with an electrospray ionization interface and a photodiode array eλ detector (PDA) from Waters Inc. (Milford, MA, USA). Electrospray ionization was applied in positive mode. Compound-dependent parameters as MRM transitions and collision energy were developed for each compound. The analyses were run on an ACQUITY UPLC BEH C18 (50 × 2.1 mm ID, particle size 1.7 μm) with a VanGuard BEH C18 precolumn (5 × 2.1 mm ID, particle size 1.7 μm) at 40 °C, using H2O + 0.1% HCOOH (A) and CH3CN + 0.1% HCOOH (B) as the mobile phase. The percentage of test compound remaining at each time point relative to t = 0 was calculated by the response factor on the basis of the internal standard peak area. The percentage of test compound versus time was plotted and fitted by GraphPad Prism (GraphPad Software, Version 5 for Windows, CA, USA, www.graphpad.com) to estimate the compound’s half-life (t1/2), which was reported as mean value along with the standard deviation (n = 3).

Data set [3] can be described thus: Liver microsomal stability assay (NADPH), mouse. Particulars: for half-life at 4.6 μM: male, CD1, pH 7.5, mouse liver microsomes, read-out: LM_NADPH t1/2; for % compound remaining at last time-point, LM_NADPH: mouse liver microsomes, 4.6 μM, 60 min. The protocol:
as §2
On the technique in general: Liver microsomes are a subcellular fraction often used to study metabolism.

Data set [4] is described as follows: Plasma stability assay, rat plasma. The settings on record: for % compound remaining at last time-point, plasma: 2.0 μM, 120 min; for half-life at 2 μM: n ≥ 3, read-out: plasma t1/2. The protocol:
as §1

Data set [5] can be described thus: Liver microsomal stability assay (NADPH), rat. Particulars: male, Sprague-Dawley, pH 7.5, rat liver microsomes, read-out: LM_NADPH t1/2. The protocol:
Pooled CD1 mouse (M1000, male), IGS Sprague-Dawley rat (R1000, male), and human (H1000, male) liver microsomes were purchased from SEKISUI XenoTech. 10 mM DMSO stock solution of the test compound (39 or 50) was preincubated at 37 °C for 15 min with mouse, rat, or human liver microsomes in 0.1 M Tris-HCl buffer (pH 7.5) with 10% DMSO. The final concentration was 4.6 μM. After preincubation, the cofactor (NADPH) was added to the incubation mixture, and the incubation was continued at 37 °C for 1 h. At each time point (0, 5, 15, 30, and 60 min), 30 μL of incubation mixture was diluted with 200 μL cold CH3CN spiked with 200 nM of an appropriate internal standard, followed by centrifugation at 3.270g for 15 min. […] A reference incubation mixture of each specie (microsomes without cofactors) was prepared for each test compound and analyzed at t = 0 and 60 min in order to verify the compound stability in the matrix. […] The supernatants were analyzed by LC–MS/MS on a Waters ACQUITY UPLC-MS TQD system consisting of a triple quadrupole detector (TQD) mass spectrometer equipped with an electrospray ionization interface and a photodiode array eλ detector (PDA) from Waters Inc. (Milford, MA, USA). […] The percentage of test compound remaining at each time point relative to t = 0 was calculated by the response factor on the basis of the internal standard peak area. […]

In the case of `CCCCc1ccc(O[C@H]2C[C@H]3CC[C@@H](C2)N3S(=O)(=O)c2c(C)n[nH]c2C)cc1` [Compound 39, (1R,3r,5S)-3-(4-Butylphenoxy)-8-((3,5-dimethyl-1H-pyrazol-4-yl)sulfonyl)-8-azabicyclo[3.2.1]octane], the “% compound remaining at last time-point, plasma” value in data set [1] and in data set [4] was 93% throughout. Further, the half-life at 2 μM in data set [1] and in data set [4] was greater than 2 h in each case. For the same molecule, the “% compound remaining at last time-point, LM_NADPH” value in data set [2] stood at 83%; in data set [3], 93%. Besides, the half-life at 4.6 μM in data set [2] and in data set [3] was greater than 1 h each time. For the same molecule, the half-life at 1 h, 4.6 µM in data set [5] turned out to be 0.217 h.

As to `CCOCc1cnc(O[C@H]2C[C@H]3CC[C@@H](C2)N3S(=O)(=O)c2c(C)n[nH]c2C)cn1` [Compound 50, (1R,3r,5S)-8-((3,5-Dimethyl-1H-pyrazol-4-yl)sulfonyl)-3-((5-(ethoxymethyl)pyrazin-2-yl)oxy)-8-azabicyclo[3.2.1]octane], the “% compound remaining at last time-point, plasma” value in data set [1] is 95%; in data set [4], 93%. Also, the half-life at 2 μM in data set [1] and in data set [4] was greater than 2 h each time. Also, the “% compound remaining at last time-point, LM_NADPH” value worked out at 88% in data set [2] and 55% in data set [3]. Also, the half-life at 4.6 μM in data set [2] and in data set [3] was greater than 1 h in each case. Besides, in data set [5], the half-life at 1 h, 4.6 µM is 0.8 h.
